Results reported in US12441703B2, “Carboxamides as modulators of sodium channels” (VERTEX PHARMACEUTICALS INCORPORATED, priority 2019, dated 2025).

biological target: human NaV 1.8 (Homo sapiens, UniProt Q9Y5Y9); test: E-VIPR assay for detecting and measuring NaV inhibition properties; type: cell-based; conditions: E-VIPR assay conducted in the presence of human serum; HEK cells expressing truncated human NaV 1.8; read-out: IC50
Outline: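 Membrane-potential (coumarin/oxonol) readout after 10 s of 10 Hz biphasic electrical stimulation on E-VIPR. Compounds: 11-point 3-fold dilutions, […], 0.625% DMSO, 30 min at room temperature, human serum optional. Cells: HEK expressing truncated human NaV1.8 co-transduced with KIR2.1.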

Chain of human NaV 1.8 (Q9Y5Y9 whole entry, looked up, the tested form may be a part): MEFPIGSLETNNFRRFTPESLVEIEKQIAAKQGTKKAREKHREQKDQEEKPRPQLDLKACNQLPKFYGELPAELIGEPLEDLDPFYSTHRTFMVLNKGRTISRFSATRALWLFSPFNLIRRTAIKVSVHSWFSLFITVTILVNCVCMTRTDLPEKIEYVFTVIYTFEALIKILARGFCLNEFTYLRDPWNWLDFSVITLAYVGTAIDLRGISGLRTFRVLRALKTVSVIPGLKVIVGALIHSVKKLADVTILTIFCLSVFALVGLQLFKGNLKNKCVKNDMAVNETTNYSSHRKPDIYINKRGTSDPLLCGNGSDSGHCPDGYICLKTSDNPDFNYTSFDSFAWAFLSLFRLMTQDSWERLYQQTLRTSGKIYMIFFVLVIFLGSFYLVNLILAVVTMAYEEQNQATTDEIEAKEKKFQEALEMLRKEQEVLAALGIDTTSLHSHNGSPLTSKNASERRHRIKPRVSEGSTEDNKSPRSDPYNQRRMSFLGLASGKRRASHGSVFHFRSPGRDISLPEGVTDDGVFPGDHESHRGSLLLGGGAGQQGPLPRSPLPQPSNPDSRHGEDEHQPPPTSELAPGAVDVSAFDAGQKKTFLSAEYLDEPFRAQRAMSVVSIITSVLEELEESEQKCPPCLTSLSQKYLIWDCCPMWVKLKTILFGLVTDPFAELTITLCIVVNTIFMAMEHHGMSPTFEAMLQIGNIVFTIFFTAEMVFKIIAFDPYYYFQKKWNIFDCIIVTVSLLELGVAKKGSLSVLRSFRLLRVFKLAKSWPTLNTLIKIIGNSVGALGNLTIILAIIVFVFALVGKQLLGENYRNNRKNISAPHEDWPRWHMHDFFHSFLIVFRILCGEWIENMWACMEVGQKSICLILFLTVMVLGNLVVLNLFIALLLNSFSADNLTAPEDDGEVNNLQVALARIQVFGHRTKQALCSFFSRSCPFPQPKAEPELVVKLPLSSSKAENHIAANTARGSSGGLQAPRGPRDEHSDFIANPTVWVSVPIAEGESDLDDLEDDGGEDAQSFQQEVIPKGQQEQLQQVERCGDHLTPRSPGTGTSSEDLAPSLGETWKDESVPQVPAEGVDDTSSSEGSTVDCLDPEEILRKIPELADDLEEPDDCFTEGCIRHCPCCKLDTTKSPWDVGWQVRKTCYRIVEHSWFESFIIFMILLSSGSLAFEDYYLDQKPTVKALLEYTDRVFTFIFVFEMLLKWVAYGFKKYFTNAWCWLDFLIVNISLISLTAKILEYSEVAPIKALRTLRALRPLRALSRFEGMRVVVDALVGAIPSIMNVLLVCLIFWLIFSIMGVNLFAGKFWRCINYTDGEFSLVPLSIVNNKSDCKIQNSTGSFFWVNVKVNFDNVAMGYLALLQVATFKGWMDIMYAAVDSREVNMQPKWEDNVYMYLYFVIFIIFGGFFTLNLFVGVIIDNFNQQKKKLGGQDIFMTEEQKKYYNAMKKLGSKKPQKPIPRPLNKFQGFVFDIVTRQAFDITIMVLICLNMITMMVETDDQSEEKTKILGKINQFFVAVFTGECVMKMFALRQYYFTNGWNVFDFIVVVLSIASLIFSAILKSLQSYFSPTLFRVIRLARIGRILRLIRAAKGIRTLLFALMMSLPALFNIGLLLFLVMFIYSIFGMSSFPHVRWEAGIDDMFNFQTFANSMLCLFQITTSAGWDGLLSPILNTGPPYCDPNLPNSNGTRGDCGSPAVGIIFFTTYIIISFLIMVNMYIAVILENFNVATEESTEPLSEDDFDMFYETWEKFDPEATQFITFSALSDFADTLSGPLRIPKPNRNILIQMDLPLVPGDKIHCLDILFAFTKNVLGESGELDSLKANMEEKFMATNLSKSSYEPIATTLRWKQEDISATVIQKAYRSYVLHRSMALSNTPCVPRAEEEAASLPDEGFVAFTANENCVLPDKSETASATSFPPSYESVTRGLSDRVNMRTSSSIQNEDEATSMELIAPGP

Row | Compound | IC50
1 | [2H]C([2H])([2H])Oc1c(Oc2ccc(C(F)F)c(OC)c2C(=O)Nc2ccnc(C(N)=O)c2)ccc(OC(F)(F)F)c1F [Compound 319, 4-[[3-(difluoromethyl)-6-[3-fluoro-2-(trideuteriomethoxy)-4-(trifluoromethoxy)phenoxy]-2-methoxy-benzoyl]amino]pyridine-2-carboxamide] | 5.2 nM
2 | COc1c(Oc2cc3c(c(C)c2C(=O)Nc2ccnc(C(N)=O)c2)OC(F)(F)O3)ccc(OC(F)(F)F)c1F [Compound 327, 4-[[2,2-difluoro-6-[3-fluoro-2-methoxy-4-(trifluoromethoxy)phenoxy]-4-methyl-1,3-benzodioxole-5-carbonyl]amino]pyridine-2-carboxamide] | 8.3 nM
3 | COc1c(Oc2ccc(C(F)(F)F)c(F)c2C(=O)Nc2cc(C(N)=O)ncn2)ccc(OC(F)(F)F)c1F [Compound 329, 6-[[2-fluoro-6-[3-fluoro-2-methoxy-4-(trifluoromethoxy)phenoxy]-3-(trifluoromethyl)benzoyl]amino]pyrimidine-4-carboxamide] | 12.7 nM
4 | COc1c(Oc2ccc(C(F)(F)F)c(F)c2C(=O)Nc2cc(C(N)=O)ccn2)ccc(OC(F)(F)F)c1F [Compound 330, 2-[[2-fluoro-6-[3-fluoro-2-methoxy-4-(trifluoromethoxy)phenoxy]-3-(trifluoromethyl)benzoyl]amino]pyridine-4-carboxamide] | 29 nM
5 | COc1c(Oc2ccc(C(F)(F)F)c(F)c2C(=O)Nc2cnc(C(N)=O)nc2)ccc(OC(F)(F)F)c1F [Compound 331, 5-[[2-fluoro-6-[3-fluoro-2-methoxy-4-(trifluoromethoxy)phenoxy]-3-(trifluoromethyl)benzoyl]amino]pyrimidine-2-carboxamide] | 4.6 nM
6 | COc1c(Oc2cnc(C(F)(F)F)c(OC)c2C(=O)Nc2cc(C(N)=O)ncc2C)ccc(OC(F)(F)F)c1F [Compound 334, N-(2-carbamoyl-5-methyl-4-pyridyl)-5-[3-fluoro-2-methoxy-4-(trifluoromethoxy)phenoxy]-3-methoxy-2-(trifluoromethyl)pyridine-4-carboxamide] | 7 nM
7 | COc1c(Oc2cnc(C(F)(F)F)c(C)c2C(=O)Nc2cnc(C(N)=O)nc2)ccc(OC(F)(F)F)c1F [Compound 335, 5-[[5-[3-fluoro-2-methoxy-4-(trifluoromethoxy)phenoxy]-3-methyl-2-(trifluoromethyl)pyridine-4-carbonyl]amino]pyrimidine-2-carboxamide] | 15.5 nM
8 | COc1c(Oc2cnc(C(F)(F)F)c(C)c2C(=O)Nc2cc(C(N)=O)ncc2C)ccc(OC(F)(F)F)c1F [Compound 336, N-(2-carbamoyl-5-methyl-4-pyridyl)-5-[3-fluoro-2-methoxy-4-(trifluoromethoxy)phenoxy]-3-methyl-2-(trifluoromethyl)pyridine-4-carboxamide] | 5.6 nM
9 | COc1c(Oc2cnc(C(F)(F)F)c(C)c2C(=O)Nc2ccc(C(N)=O)nc2)ccc(OC(F)(F)F)c1F [Compound 337, N-(6-carbamoyl-3-pyridyl)-5-[3-fluoro-2-methoxy-4-(trifluoromethoxy)phenoxy]-3-methyl-2-(trifluoromethyl)pyridine-4-carboxamide] | 20.5 nM
10 | Cc1c(Oc2ccc(C(F)(F)F)c(F)c2C(=O)Nc2ccnc(C(N)=O)c2)ccc(F)c1Cl [Compound 338, 4-[[6-(3-chloro-4-fluoro-2-methyl-phenoxy)-2-fluoro-3-(trifluoromethyl)benzoyl]amino]pyridine-2-carboxamide] | 47 nM
11 | NC(=O)c1cc(NC(=O)c2c(Oc3ccc(F)c(F)c3Cl)ccc(C(F)(F)F)c2F)ccn1 [Compound 339, 4-[[6-(2-chloro-3,4-difluoro-phenoxy)-2-fluoro-3-(trifluoromethyl)benzoyl]amino]pyridine-2-carboxamide] | 27 nM
12 | NC(=O)c1cc(NC(=O)c2c(Oc3c(F)ccc(F)c3C3CC3)ccc(C(F)(F)F)c2F)ccn1 [Compound 340, 4-[[6-(2-cyclopropyl-3,6-difluoro-phenoxy)-2-fluoro-3-(trifluoromethyl)benzoyl]amino]pyridine-2-carboxamide] | > 3000 nM
13 | COc1cc(C(F)F)ccc1Oc1ccc(C(F)(F)F)c(F)c1C(=O)Nc1ccnc(C(N)=O)c1 [Compound 341, 4-[[6-[4-(difluoromethyl)-2-methoxy-phenoxy]-2-fluoro-3-(trifluoromethyl)benzoyl]amino]pyridine-2-carboxamide] | 330 nM
14 | COc1c(Oc2ccc(C(F)(F)F)c(F)c2C(=O)Nc2ccnc(C(N)=O)c2)ccc(OC(F)F)c1F [Compound 343, 4-[[6-[4-(difluoromethoxy)-3-fluoro-2-methoxy-phenoxy]-2-fluoro-3-(trifluoromethyl)benzoyl]amino]pyridine-2-carboxamide] | 4.8 nM
15 | CCc1c(Oc2ccc(C(F)(F)F)c(F)c2C(=O)Nc2ccnc(C(N)=O)c2)ccc(OC(F)(F)F)c1F [Compound 344, 4-[[6-[2-ethyl-3-fluoro-4-(trifluoromethoxy)phenoxy]-2-fluoro-3-(trifluoromethyl)benzoyl]amino]pyridine-2-carboxamide] | 4.7 nM
16 | NC(=O)c1cc(NC(=O)c2c(Oc3ccc(OC(F)(F)F)c(F)c3C3CC3)ccc(C(F)(F)F)c2F)ccn1 [Compound 345, 4-[[6-[2-cyclopropyl-3-fluoro-4-(trifluoromethoxy)phenoxy]-2-fluoro-3-(trifluoromethyl)benzoyl]amino]pyridine-2-carboxamide] | 2.5 nM
17 | CCOc1cc(OC(F)(F)F)ccc1Oc1ccc(C(F)(F)F)c(F)c1C(=O)Nc1ccnc(C(N)=O)c1 [Compound 346, 4-[[6-[2-ethoxy-4-(trifluoromethoxy)phenoxy]-2-fluoro-3-(trifluoromethyl)benzoyl]amino]pyridine-2-carboxamide] | 5.8 nM
18 | COc1cc(Oc2ccc(F)c(F)c2C)c(C(=O)Nc2ccnc(C(N)=O)c2)c(F)c1C(F)(F)F [Compound 348, 4-[[6-(3,4-difluoro-2-methyl-phenoxy)-2-fluoro-4-methoxy-3-(trifluoromethyl)benzoyl]amino]pyridine-2-carboxamide] | 20 nM
19 | CC(C)(C)c1cc(Cc2ccccc2)c(C(=O)Nc2ccnc(C(N)=O)c2)cn1 [Compound 349, 4-benzyl-6-tert-butyl-N-(2-carbamoyl-4-pyridyl)pyridine-3-carboxamide] | > 3000 nM
20 | CC(C)(C)c1cc(Cc2ccc(F)c(F)c2)c(C(=O)Nc2ccnc(C(N)=O)c2)cn1 [Compound 350, 6-tert-butyl-N-(2-carbamoyl-4-pyridyl)-4-[(3,4-difluorophenyl)methyl]pyridine-3-carboxamide] | > 3000 nM

Second part, the molecule after the results:

Row | IC50 | Compound
21 | 0.4 nM | COc1cc(Oc2ccc(OC(F)(F)F)c(F)c2OC)c(C(=O)Nc2ccnc(C(N)=O)c2)c(F)c1C(F)(F)F [Compound 320, 4-[[2-fluoro-6-[3-fluoro-2-methoxy-4-(trifluoromethoxy)phenoxy]-4-methoxy-3-(trifluoromethyl)benzoyl]amino]pyridine-2-carboxamide]
22 | 11 nM | COc1cc(Oc2ccc(OC(F)(F)F)c(F)c2OC)c(C(=O)Nc2ccc(C(N)=O)nc2)c(F)c1C(F)(F)F [Compound 321, 5-[[2-fluoro-6-[3-fluoro-2-methoxy-4-(trifluoromethoxy)phenoxy]-4-methoxy-3-(trifluoromethyl)benzoyl]amino]pyridine-2-carboxamide]
23 | 6.1 nM | COc1c(Oc2ccc(OC(F)(F)F)c(F)c2C(=O)Nc2ccnc(C(N)=O)c2)ccc(OC(F)(F)F)c1F [Compound 322, 4-[[2-fluoro-6-[3-fluoro-2-methoxy-4-(trifluoromethoxy)phenoxy]-3-(trifluoromethoxy)benzoyl]amino]pyridine-2-carboxamide]
24 | 0.8 nM | COc1c(Oc2cc(C(F)(F)F)c(C)c(F)c2C(=O)Nc2ccnc(C(N)=O)c2)ccc(OC(F)(F)F)c1F [Compound 323, 4-[[2-fluoro-6-[3-fluoro-2-methoxy-4-(trifluoromethoxy)phenoxy]-3-methyl-4-(trifluoromethyl)benzoyl]amino]pyridine-2-carboxamide]
25 | 1.7 nM | COc1cc(Oc2ccc(OC(F)(F)F)c(F)c2OC)c(C(=O)Nc2ccnc(C(N)=O)c2)c(F)c1Cl [Compound 324, 4-[[3-chloro-2-fluoro-6-[3-fluoro-2-methoxy-4-(trifluoromethoxy)phenoxy]-4-methoxy-benzoyl]amino]pyridine-2-carboxamide]
26 | 1.6 nM | COc1c(Oc2cc(C(F)(F)F)c(OC)c(F)c2C(=O)Nc2ccnc(C(N)=O)c2)ccc(OC(F)(F)F)c1F [Compound 325, 4-[[2-fluoro-6-[3-fluoro-2-methoxy-4-(trifluoromethoxy)phenoxy]-3-methoxy-4-(trifluoromethyl)benzoyl]amino]pyridine-2-carboxamide]
27 | 1.3 nM | COc1c(Cl)cc(Oc2ccc(OC(F)(F)F)c(F)c2OC)c(C(=O)Nc2ccnc(C(N)=O)c2)c1F [Compound 326, 4-[[4-chloro-2-fluoro-6-[3-fluoro-2-methoxy-4-(trifluoromethoxy)phenoxy]-3-methoxy-benzoyl]amino]pyridine-2-carboxamide]
28 | 2.7 nM | COc1c(Oc2cnc(C(F)(F)F)c(F)c2C(=O)Nc2ccnc(C(N)=O)c2)ccc(OC(F)(F)F)c1F [Compound 332, N-(2-carbamoyl-4-pyridyl)-3-fluoro-5-[3-fluoro-2-methoxy-4-(trifluoromethoxy)phenoxy]-2-(trifluoromethyl)pyridine-4-carboxamide]
29 | 4.9 nM | COc1c(Oc2cnc(C(F)(F)F)c(OC)c2C(=O)Nc2ccnc(C(N)=O)c2)ccc(OC(F)(F)F)c1F [Compound 333, N-(2-carbamoyl-4-pyridyl)-5-[3-fluoro-2-methoxy-4-(trifluoromethoxy)phenoxy]-3-methoxy-2-(trifluoromethyl)pyridine-4-carboxamide]
30 | 3.1 nM | CCOc1cc(OC(F)(F)F)ccc1Oc1cc(OC)c(C(F)(F)F)c(F)c1C(=O)Nc1ccnc(C(N)=O)c1 [Compound 347, 4-[[6-[2-ethoxy-4-(trifluoromethoxy)phenoxy]-2-fluoro-4-methoxy-3-(trifluoromethyl)benzoyl]amino]pyridine-2-carboxamide]
